Measured values as given in patent US20230355517A1, “USE OF ACTIVE SUBSTANCES WITH ANTIVIRAL, ANTI MALARIAL, AND/OR MUCOLYTIC PROPERTIES IN THE TREATMENT OF VIRAL LUNG DISEASES INCLUDING COVID-19 BY SOFT MIST INHALER OR VIBRATION MESH TECHNOLOGY NEBULIZER THROUGH INHALATION ROUTE” (ATANBUL UNIVERSITESI REKTOLUGU, priority 2020, published 2023).

Assays:
[1] = pH analysis of compositions containing favipiravir; assay type: physicochemical
Procedure: In the present invention, pH analysis was performed for the composition containing favipiravir. […] When it is formulated with phosphate buffer, pH values thereof approach 7,4. Therefore, in consideration of all combinations, the pH interval for the formulations was kept in the range of 3.5-8.0.

lung tissue = system: lung tissue; set-up: species or system rats; details: rat, in vivo
[2] = assay type: physicochemical; details: pH 7.4
Procedure: In the present invention, a study for solubility of favipiravir active substance was conducted.

SMILES: NC(=O)c1nc(F)c[nH]c1=O [favipiravir]
- pH values ([1]; formulated with phosphate buffer): ~7,4
- smallest pH value ([1]; in combinations of physiological saline, half physiological saline, and HP-β-cyclodextrin): 3.56-3.62
- histological damage scores of the lungs (H&E) (lung tissue): not statistically different
- lung histology under light microscopy (lung tissue): Normal lung histology
- solubility [2]: further increased
